# Tests used:
# Assay type in all cases: in vivo
# [1] = test system: Echinochloa crus-galli (ECHCG); experiment: Pre-emergence herbicidal action against ECHCG
# Outline: (§1)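 Read-out is visual percent damage relative to untreated pots, with 100% meaning dead plants and 0% meaning no difference, assessed roughly three weeks after treatment. Compounds were applied pre-emergence to the covering soil at up to 320 g/ha.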
# Viola tricolor (VIOTR) = experiment: Pre-emergence herbicidal action against VIOTR
# Outline: as §1
# [2] = test system: Pharbitis purpurea (PHBPU); experiment: Pre-emergence herbicidal action against PHBPU
# Outline: as §1
# [3] = test system: Polygonum convolvulus (POLCO); experiment: Pre-emergence herbicidal action against POLCO
# Outline: as §1
# Avena fatua (AVEFA) = experiment: Pre-emergence herbicidal action against AVEFA; details: visual scoring after about 3 weeks vs untreated controls
# Outline: as §1
# [4] = test system: Polygonum convolvulus (POLCO); experiment: Post-emergence herbicidal action against POLCO
# Outline: (§2)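 Rates were 320 g/ha or below, applied as aqueous WP/EC spray with 0.5% additive (600 l/ha) onto one-leaf-stage plants. About 3 weeks later in the greenhouse, damage was scored visually against untreated plants on a 0–100% scale, where 100% means plants died.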
# [5] = test system: Verconica persica (VERPE); experiment: Post-emergence herbicidal action against VERPE
# Outline: as §2
# [6] = test system: Abutilon theophrasti (ABUTH); experiment: Post-emergence herbicidal action against ABUTH; details: visual rating about 3 weeks after treatment vs untreated controls (100% = plants have died, 0% = like control plants)
# Outline: as §2
# [7] = test system: Amaranthus retroflexus (AMARE); experiment: Post-emergence herbicidal action against AMARE
# Outline: as §2
# [8] = test system: Pharbitis purpurea (PHBPU); experiment: Post-emergence herbicidal action against PHBPU
# Outline: as §2
# [9] = 320 g/ha, visual rating about 3 weeks after treatment
# [10] = 80 g/ha, visual rating about 3 weeks after treatment vs untreated controls (100% = plants have died, 0% = like control plants)
Compound,Pre-emergence action against ECHCG in % ([1]; dosage 80 g/ha),Pre-emergence action against ECHCG in % ([1]; dosage 320 g/ha),"Pre-emergence action against VIOTR in % (Viola tricolor (VIOTR); 320 g/ha, Viola tricolor)",Pre-emergence action against VIOTR in % (Viola tricolor (VIOTR); dosage 80 g/ha),Pre-emergence action against PHBPU in % ([2]; dosage 80 g/ha),Pre-emergence action against PHBPU in % ([2]; dosage 320 g/ha),Pre-emergence action against POLCO in % ([3]; dosage 80 g/ha),Pre-emergence action against POLCO in % ([3]; dosage 320 g/ha),Pre-emergence action against AVEFA in % (Avena fatua (AVEFA); 320 g/ha),Post-emergence action against POLCO in % ([4]; dosage 80 g/ha),Post-emergence action against POLCO in % ([4]; dosage 320 g/ha),"Post-emergence action against VERPE in % ([5]; 320 g/ha, VERPE)",Post-emergence action against ABUTH in % ([6]; 320 g/ha),"Post-emergence action against AMARE in % [7, 9]",Pre-emergence action against AVEFA in % (Avena fatua (AVEFA); 80 g/ha),Post-emergence action against PHBPU in % ([8]; dosage 80 g/ha),Post-emergence action against PHBPU in % ([8]; dosage 320 g/ha),Post-emergence action against VERPE in % ([5]; dosage 80 g/ha),Post-emergence action against ABUTH in % ([6]; 80 g/ha),"Post-emergence action against AMARE in % [7, 10]"
C[C@@H](Oc1nn(-c2ncccc2F)c(-c2ccc(F)nc2)c1Br)C(=O)O [Example I-10],80%,90%,100%,100%,90%,90%,100%,100%,100%,80%,80%,80%,80%,,,,,,,
CCOC(=O)[C@@H](C)Oc1nn(-c2nc(F)ccc2F)c(-c2cncc(F)c2)c1Cl [Example I-208],90%,100%,100%,100%,90%,90%,90%,90%,90%,,80%,80%,90%,80%,80%,80%,90%,80%,80%,
COCCOC(=O)COc1nn(-c2ccccn2)c(-c2ccc(F)nc2)c1Br [Example I-96],80%,100%,90%,,90%,90%,90%,90%,90%,80%,80%,90%,90%,80%,,90%,90%,80%,90%,80%
COC(=O)COc1nn(-c2ncccc2F)c(-c2cncc(F)c2)c1Br [Example I-16],90%,90%,100%,100%,,80%,90%,90%,90%,,,90%,,80%,,90%,90%,80%,,
COC(=O)C(C)COC(=O)[C@@H](C)Oc1nn(-c2ccccn2)c(-c2cncc(F)c2)c1Cl (stereo partly drawn) [Example I-198],90%,100%,100%,90%,80%,90%,90%,90%,90%,,,80%,80%,90%,,80%,90%,80%,80%,80%
C[C@@H](Oc1nn(-c2ncccc2F)c(-c2ccc(F)nc2)c1Br)C(=O)O [Example I-18],90%,90%,100%,100%,,90%,100%,100%,100%,,,,80%,,90%,,,,,
COC(=O)C(C)NC(=O)[C@@H](C)Oc1nn(-c2ccccn2)c(-c2cncc(F)c2)c1Cl (stereo partly drawn) [Example I-199],90%,90%,100%,100%,80%,90%,80%,90%,90%,,,90%,80%,90%,80%,,80%,90%,,80%
